According to patent EP4609859A1, “INHIBITORS OF THE GENE SMPD1 FOR THE TREATMENT OF SPINAL MUSCULAR ATROPHY” (Universidad Pablo de Olavide, priority 2024, dated 2025):

Legend:
nematode development = experiment: Visible effect of drug treatment on nematode development; type: in vivo, C. elegans; details: at the concentrations tested in the SMN-1 assay
Experimental: (§1) RNAi feeding was performed as described (Kamath and Ahringer, 2003). RNAi clones belong to the Aringher gene library were used: JA:C41G7.1 (smn-1), JA:T18D3.7 (tsct-1), JA:WO3G1.7 (asm-3), JA:C07A12.7 (C07A12.7), JA:C10E2.3 (hda-4), JA:K09A9.4 (usp-33), JA:R01B10.1 (cpi-2), JA:K08B4.6 (cpi-1), JA:K06A4.3 (gsnl-1), JA:F23H11.4 (F23H11.4), JA:T18H9.7 (pacs-1), JA:C41G7.1 (smn-1) and MV_SV: mv_ZK455.4 (asm-2) from Marc Vidal's gene library (Kim et al., 2005). For smn-1 expression assays, gravid hermaphrodites were transferred to empty plasmid pL4440 or RNAi plates, incubated at 20°C for 48 hours and the next generation was analyzed at the L4 stage. For the drug assay, NGM plates were prepared at the indicated concentrations and the respective vehicle was used as a control, then proceeded as in the RNAi assay.

SMN-1 = SMN-1 level by head fluorescence in C. elegans strain mCherry::smn-1 (PHX2635) after drug treatment; type: in vivo; details: for level of SMN-1, repeated experiments on different days: Fig. 11, vs non-treated animals
Description: C. elegans strains were cultivated under standard conditions (Stiernagle, 2006). The strains used are as follows: PHX2635: smn-1(syb2635); BN1158: bqSi1152[pBN521(unc-119(+) eft-3p::Frt::mCh::his-58::Frt::UPRT)]II; bqSi577[pBN306(unc-119(+) myo-2p::GFP)] IV. unc-119(ed9)III . The Escherichia coli strains used were: OP50 and HT115.
The strain PHX2635: smn-1(syb2635) was generated by CRISPR technology, we introduced the coding sequence of the fluorescent protein m-Cherry upstream of the TAA stop codon of the C. elegans SMN1 homologous gene, smn-1, as indicated in the sequence: [formula]
as §1, with “For smn-1 expression assays, gravid hermaphrodites were transferred to empty plasmid pL4440 or RNAi plates, incubated at 20°C for 48 hours and the next generation was analyzed at the L4 stage.” left out
L4 worms were mounted in a coverslip with a 2% agarose pad. C. elegans confocal images were acquired using a Nikon A1R microscope equipped with a 60x Plan Apo lens of Numerical Aperture 1.4. Twelve pictures were taken for each worm to be integrated in a Z image. […] Laser intensity, gain and pixel scan speed remained constant along all sets of experiments.
For image analysis, we used FIJI software. The experimentalist drew manually a ROI containing between the second pharynx bulb and the mouth of the nematode. Within this area, mCherry expression was detected using an intensity threshold that remained constant along all images. This minimum intensity level was defined by the experimenter. Within the thresholded volume, we measured the integrated density using the plugin 3D object counter (Bolte and Cordelières, 2006). […]

SMPD1 [1] = biological target: T1, SMPD1 (Homo sapiens, UniProt P17405); experiment: Immunofluorescence (CTCF) of SMPD1 in differentiated human SMA MNs; type: cell-based; details: SMAI MNs, 10µM, 24 h; untreated 126.7±5.74; p<0.0001
T1 construct: host or cells: human SMA type 2 patient fibroblasts (SMAII)
T1 sequence (P17405 47-631): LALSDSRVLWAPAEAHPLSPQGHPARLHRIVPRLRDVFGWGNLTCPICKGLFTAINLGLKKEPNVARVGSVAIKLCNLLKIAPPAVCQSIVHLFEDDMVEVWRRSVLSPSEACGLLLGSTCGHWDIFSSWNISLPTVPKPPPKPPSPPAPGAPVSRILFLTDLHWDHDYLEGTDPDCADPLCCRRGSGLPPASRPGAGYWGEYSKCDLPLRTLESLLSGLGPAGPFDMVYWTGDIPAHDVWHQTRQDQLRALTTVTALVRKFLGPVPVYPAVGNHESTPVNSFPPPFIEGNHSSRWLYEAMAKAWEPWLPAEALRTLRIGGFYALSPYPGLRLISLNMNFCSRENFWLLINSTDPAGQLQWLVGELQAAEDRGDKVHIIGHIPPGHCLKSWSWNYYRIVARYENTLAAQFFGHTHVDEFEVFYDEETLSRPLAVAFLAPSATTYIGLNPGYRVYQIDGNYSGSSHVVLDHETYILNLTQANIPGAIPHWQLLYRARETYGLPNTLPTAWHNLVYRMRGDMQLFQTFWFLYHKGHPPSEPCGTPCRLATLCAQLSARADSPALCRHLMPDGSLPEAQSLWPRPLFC
Description: Three human iPSCs lines were used in the present work. The GM23411*B (Coriell Institute) iPSC cell line obtained from a healthy […] individual was used as control. The GM23240*B (Coriell Institute) iPSCs obtained from a fibroblast cell line of a […] SMA type 2 patient (2 copies SMN2; deletion exon7-8 in SMN1) was used as SMAII condition. SMAII patient was previously classified as SMA type 1, but several data supported re-classification to SMA type 2. The CS84iSMA-nxx (Cedar Sinai, Los Angeles, USA) iPSCs obtained from a lymphoblast cell line of a […] SMA type 1 patient (2 copies SMN2; deletion exon7-8 in SMN1) was used as SMAI condition. […]
(§2) Cultured cells were fixed with 4% paraformaldehyde (Sigma) for 10 min and cold methanol (Sigma) for 30 min more. […] Quantification of fluorescence intensity was performed blinded, using the NIH ImageJ software (Schindelin et al., 2012). Using phase contrast images, the cell perimeter was manually delimited and transferred to the corresponding fluorescence images. The Integrated Density (IntDen) was measured in the selected area of the cell. Three non-fluorescent surrounding regions were measured to set up the background readings. The fluorescence intensity was calculated using the following formula: Corrected Total Cell Fluorescence (CTCF) = IntDen (sum of the values of the pixels in the selection) - (area of the cell x mean fluorescence of the background).

SMPD1 [2] = biological target: T1, SMPD1; experiment: Immunofluorescence (CTCF) of SMPD1 in human SMA fibroblasts; type: cell-based; details: SMAII fibroblasts, 20µM, 24 h; untreated 105.8±5.64; p<0.0001
Experimental: Two human fibroblasts cell lines from SMA patients (GM03813, SMA type 2 patient, SMAII; and GM09677, SMA type 1 patient, SMAI) and one healthy control (GM03814, Control) were obtained and cultured following the manufacturer instructions. Fibroblasts were maintained in Eagle's Minimum Essential Medium (MEM) (Sigma) supplemented with 15% (v/v) non-inactivated fetal bovine serum (FBS) (Gibco), […] of L-Glutamine (Gibco), 1% (v/v) non-essential amino acids, and 20µg/ml of Penicillin-Streptomycin (Gibco). For western blot analysis, cells were plated at 3,000-4,000 cells/cm2 in 35mm dishes and cultured in supplemented MEM for 24 h. […]
as §2

SMN protein [3] = experiment: Western blot of SMN in human SMA patient fibroblasts; type: cell-based; details: SMAII and SMAI fibroblasts, 5µM, 10µM, or 25µM, 24 h
Experimental: Fibroblasts were maintained in Eagle's Minimum Essential Medium (MEM) (Sigma) supplemented with 15% (v/v) non-inactivated fetal bovine serum (FBS) (Gibco), 0.5M of L-Glutamine (Gibco), 1% (v/v) non-essential amino acids, and 20µg/ml of Penicillin-Streptomycin (Gibco). For western blot analysis, cells were plated at 3,000-4,000 cells/cm2 in 35mm dishes and cultured in supplemented MEM for 24 h. For immunofluorescence experiments, 3,000 cells/well were plated in collagen-coated 1cm2 glass coverslips placed into four-well dishes and fixed in 4% paraformaldehyde (Sigma) in PBS.
Western blots were performed as previously described (Gou-Fabregas et al., 2009). Cell lysates were resolved in sodium dodecyl-sulfate polyacrylamide (SDS-PAGE) gels and transferred onto polyvinylidene difluoride (PVDF) Immobilon-P transfer membranes (Millipore, Burlington, MA, USA) using an Amersham Biosciences semidry Trans-Blot (Buckinghamshire, UK). Membranes were blotted with: anti-SMN (1: 5,000, Cat. No. 610646, BD Transduction Laboratories, Franklin Lakes, NJ, USA) and anti-SMPD1 (1: 300, Cat. No. 14609-1-AP, ProteinTech, Manchester, UK). To control the specific protein content per lane, membranes were reproved with anti-α-tubulin antibody (1: 50,000, Cat. No. T5168, Sigma). […]

SMN protein [4] = experiment: Western blot of SMN in iPSC-differentiated human SMA MNs; type: cell-based; details: remaining doses of 5µM, 10µM, 20µM in SMAI and SMAII MNs, 24 h
Description: Three human iPSCs lines were used in the present work. The GM23411*B (Coriell Institute) iPSC cell line obtained from a healthy […] individual was used as control. The GM23240*B (Coriell Institute) iPSCs obtained from a fibroblast cell line of a […] SMA type 2 patient (2 copies SMN2; deletion exon7-8 in SMN1) was used as SMAII condition. SMAII patient was previously classified as SMA type 1, but several data supported re-classification to SMA type 2. The CS84iSMA-nxx (Cedar Sinai, Los Angeles, USA) iPSCs obtained from a lymphoblast cell line of a […] SMA type 1 patient (2 copies SMN2; deletion exon7-8 in SMN1) was used as SMAI condition.
Human iPSCs were differentiated to MNs as previously described (de la Fuente et al., 2020; Du et al., 2015). Cell lines were cultured and expanded on Geltrex (Sigma)-coated plates in Essential 8 medium (Gibco). Neuroepithelial cells and MN progenitors were generated following the established protocol. To induce MN differentiation, MN progenitors were detached with Accutase (Gibco) and cultured in suspension in MN induction medium (DMEM/F12: NBM plus 1:1 supplemented with B27, L-glutamine [all from Gibco], 0.1mM ascorbic acid [Sigma], 3µM CHIR99021; 2µM SB431512, 2µM DMH1 [all from Cayman, Ann Harbor, MI, USA], 0.5µM retinoic acid [Sigma], and 0.1µM purmorphamine [Cayman]). […]

Structure (SMILES)	visible effect on nematode development (nematode development)	level of SMN-1, repeated experiments on different days (SMN-1; 500 µM)	SMPD1 relative fluorescence in cell soma (CTCF) (SMPD1 [1])	SMPD1 relative fluorescence in cell soma (CTCF) (SMPD1 [2])	SMN-1 level after treatment exclusively during the adult stage (SMN-1; 100 µM, 48 hours, started at adulthood, vs untreated)	level of SMN-1, repeated experiments on different days (SMN-1; 100 µM)	SMN protein level (SMN protein [3])	SMN protein compared to untreated control (SMN protein [4])
CCOC(=O)C1=C(COCCN)NC(C)=C(C(=O)OC)C1c1ccccc1Cl (stereo not shown) [amlodipine]	delay in nematode development	–	–	–	–	–	–	–
CNCCCN1c2ccccc2CCc2ccccc21 [desipramine]	delay in nematode development	statistically significant increase	–	–	–	–	–	–
CN(C)CCCN1c2ccccc2CCc2ccc(Cl)cc21 [clomipramine]	did not show a visible negative effect	–	91.62±3.64	56.59±4.03	significant increase	statistically significant increase	did not increase SMN protein level	No significant differences
